Experimental data reported in US12181409B2, “Cell imaging composition and cellular material imaging method using same” (EWHA UNIVERSITY-INDUSTRY COLLABORATION FOUNDATION, priority 2019, dated 2024).

How the values were obtained:
[1] = tested on: mitochondria in HeLa cells; test: Colocalization of Compound 1 with MitoTracker Deep Red, confocal microscopy; type: cell-based; settings: 10 μM Compound 1 and 50 nM MitoTracker Deep Red, 30 minutes
Description: FIGS. 10A to 10C show fluorescence images of mitochondria in a cell by Compound 1 (excitation at 405 nm/emission at 490 nm to 590 nm) (FIG. 10A), Mitotracker Deep Red (excitation at 635 nm/emission at 655 nm to 755 nm) (FIG. 10B), and Compound 1 and Mitotracker Deep Red merged (FIG. 10C), respectively, acquired by confocal microscopy after HeLa cells were incubated with 10 μM Compound 1 and 50 nM Mitotracker Deep Red for 30 min, according to an example of the present disclosure.
Referring to FIGS. 10A to 10E, HeLa cells were incubated with 10 μM Compound 1 and 50 nM MitoTracker Deep Red for 30 minutes and a fluorescent image of the mitochondria in the cells was obtained by confocal microscopy.

HeLa cells [2] = test: Cytotoxicity test (MTT); type: cell-based; settings: 30 μM Compound 1, 24 hours, MTT 4 hours, untreated sample = 100%
Description: Referring to FIG. 13, HeLa cells were treated with various concentrations of Compound 1 for 24 hours, cultured in a medium containing MTT for 4 hours, and then the viability of the cells depending on the concentration of Compound 1 was checked. When the absorbance of a sample not treated with Compound 1 was set to 100%, it was confirmed that the cells treated with 30 μM Compound 1 survived about 80%.

HSA [3] = molecular target: T1, HSA (Homo sapiens, UniProt P02768); test: Fluorescent imaging of HSA protein at various pH values; type: biochemical; settings: buffer solutions at pH 7.4, pH 7.5 and pH 8.5
Description: After Compound 1 and HSA protein were incubated in buffer solutions at various pH values, fluorescence intensity profiles and fluorescent images depending on pH were compared.

HSA [4] = molecular target: T1, HSA; test: Fluorescent imaging of various proteins; type: biochemical; settings: 3 μM Compound 1, various proteins in DMSO, 0.5 hours and 1.5 hours
Description: FIGS. 14D(i) to 14D(vi) show fluorescence imaging of proteins measured after incubating 3 μM Compound 1 with various proteins in DMSO for 0.5 hours and 1.5 hours, respectively (λex=410 nm), according to an example of the present disclosure.
After 3 μM Compound 1 and various types of proteins in DMSO were incubated for 0.5 hours and 1.5 hours, fluorescence intensity profiles and fluorescent images depending on the types of proteins were compared.

HeLa cells [5] = test: Colocalization of Compound 1 with ER-Tracker Red, confocal microscopy; type: cell-based; settings: 10 μM Compound 1 and 1 μM ER-Tracker Red, 30 minutes
Description: FIGS. 11A to 11C show fluorescence images of mitochondria in a cell by Compound 1 (excitation at 405 nm/emission at 490 nm to 590 nm) (FIG. 11A), ER(endoplasmic reticulum)-tracker Red (excitation at 559 nm/emission at 576 nm to 675 nm) (FIG. 11B), and Compound 1 and ER-tracker Red merged (FIG. 11C), respectively, acquired by confocal microscopy after HeLa cells were incubated with 10 μM Compound 1 and 1 μM ER-tracker Red for 30 min, according to an example of the present disclosure.
Referring to FIGS. 11A to 11C, HeLa cells were incubated with 10 μM Compound 1 and 1 μM ER-Tracker Red for 30 minutes and a fluorescent image of the mitochondria in the cells was obtained by confocal microscopy.

T1 sequence (P02768 25-609): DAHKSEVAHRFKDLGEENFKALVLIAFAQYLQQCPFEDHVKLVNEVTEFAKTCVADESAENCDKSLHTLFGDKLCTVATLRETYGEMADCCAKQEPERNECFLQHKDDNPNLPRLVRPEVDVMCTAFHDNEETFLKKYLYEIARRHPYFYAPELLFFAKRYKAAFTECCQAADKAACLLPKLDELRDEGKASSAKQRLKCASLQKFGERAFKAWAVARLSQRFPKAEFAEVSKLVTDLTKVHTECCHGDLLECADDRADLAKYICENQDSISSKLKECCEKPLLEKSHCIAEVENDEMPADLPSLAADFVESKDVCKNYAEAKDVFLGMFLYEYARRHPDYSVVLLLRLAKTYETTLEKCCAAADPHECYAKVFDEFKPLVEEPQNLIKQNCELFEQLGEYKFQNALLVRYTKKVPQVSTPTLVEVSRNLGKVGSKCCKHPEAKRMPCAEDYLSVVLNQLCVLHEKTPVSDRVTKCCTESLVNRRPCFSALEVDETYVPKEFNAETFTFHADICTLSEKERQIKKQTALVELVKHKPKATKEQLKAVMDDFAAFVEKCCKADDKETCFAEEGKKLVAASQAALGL

With `O=C(c1ccccc1)c1ccccc1NCc1ccccc1B(O)O` [Compound 1] the Pearson correlation coefficient [1] was 0.81±0.02, the “degree of agreement of fluorescent image” value [1] was “about 81%” and the “cell viability (survival)” value (HeLa cells [2]) was “about 80%”. The “fluorescent imaging performance for HSA depending on pH” value (HSA [3]) was “fluorescent imaging performance specific to HSA protein”, the “fluorescent imaging performance and selectivity among proteins” value (HSA [4]) was “fluorescent imaging performance and selectivity specific to HSA” and the Pearson correlation coefficient (HeLa cells [5]) was 0.85±0.01. The “degree of agreement of fluorescent image” value (HeLa cells [5]) was “about 85%”.
